In this assay the test system is recombinant NL4-3 virus (Renilla luciferase in nef, Gag P373S). Put plainly: HIV cell culture assay (luciferase activity in MT-2 cells infected with NLRluc recombinant virus). The class given is cell-based. To be noted: NL43, MT-2 cells infected 4-5 days with NLRluc recombinant virus, class symbol. The procedure:
HIV cell culture assay—MT-2 cells and 293T cells were obtained from the NIH AIDS Research and Reference Reagent Program. MT-2 cells were propagated in RPMI 1640 media supplemented with 10% heat inactivated fetal bovine serum, […]. The 293T cells were propagated in DMEM media supplemented with 10% heat inactivated fetal bovine serum (FBS), 100 units/ml penicillin G and 100 μg/ml streptomycin. The proviral DNA clone of NL4-3 was obtained from the NIH AIDS Research and Reference Reagent Program. A recombinant NL4-3 virus, in which a section of the nef gene from NL4-3 was replaced with the Renilla luciferase gene, was used as a reference virus. In addition, residue Gag P373 was converted to P373S. Briefly, the recombinant virus was prepared by transfection of the altered proviral clone of NL4-3. Transfections were performed in 293T cells using LipofectAMINE PLUS from Invitrogen (Carlsbad, Calif.), according to manufacturer's instruction. The virus was titered in MT-2 cells using luciferase enzyme activity as a marker. Luciferase was quantitated using the Dual Luciferase kit from Promega (Madison, Wis.), with modifications to the manufacturer's protocol. The diluted Passive Lysis solution was pre-mixed with the re-suspended Luciferase Assay Reagent and the re-suspended Stop & Glo Substrate (2:1:1 ratio). Fifty (50) μL of the mixture was added to each aspirated well on assay plates and luciferase activity was measured immediately on a Wallac TriLux (Perkin-Elmer). Antiviral activities of inhibitors toward the recombinant virus were quantified by measuring luciferase activity in cells infected for 4-5 days with NLRluc recombinants in the presence serial dilutions of the inhibitor. Table 1 is the key for the data in Table 2.

From patent US8748415B2 (priority 2011, dated 2014) come the findings set out here.

With `C=C(C)[C@@H]1CC[C@]2(CN(CCN(C)C)C(=O)CCC(=O)O)CC[C@]3(C)[C@H](CC[C@@H]4[C@@]5(C)CC=C(c6ccc(C(=O)O)cc6)C(C)(C)[C@@H]5CC[C@]43C)[C@@H]12` [Example 13, 4-((1R,3aS,5aR,5bR,7aR,11aS,11bR,13aR,13bR)-3a-((3-carboxy-N-(2-(dimethylamino)ethyl)propanamido)methyl)-5a,5b,8,8,11a-pentamethyl-1-(prop-1-en-2-yl)-2,3,3a,4,5,5a,5b,6,7,7a,8,11,11a,11b,12,13,13a,13b-octadecahydro-1H-cyclopenta[a]chrysen-9-yl)benzoic acid], the concentration for a half-maximal effect (EC50) was under 100 nM.
Turning to `C=C(C)[C@@H]1CC[C@]2(CNCCCN3CCS(=O)(=O)CC3)CC[C@]3(C)[C@H](CC[C@@H]4[C@@]5(C)CC=C(c6ccc(C(=O)O)cc6)C(C)(C)[C@@H]5CC[C@]43C)[C@@H]12` [Example 14, 4-((1R,3aS,5aR,5bR,7aR,11aS,11bR,13aR,13bR)-5a,5b,8,8,11a-pentamethyl-1-(prop-1-en-2-yl)-3a-((3-(1-dioxo-thiomorpholino)propylamino)methyl)-2,3,3a,4,5,5a,5b,6,7,7a,8,11,11a,11b,12,13,13a,13b-octadecahydro-1H-cyclopenta[a]chrysen-9-yl)benzoic acid], the EC50 was under 100 nM.
Then `C=C(C)[C@@H]1CC[C@]2(CN(C)CCCN3CCS(=O)(=O)CC3)CC[C@]3(C)[C@H](CC[C@@H]4[C@@]5(C)CC=C(c6ccc(C(=O)O)cc6)C(C)(C)[C@@H]5CC[C@]43C)[C@@H]12` [Example 15, 4-((1R,3aS,5aR,5bR,7aR,11aS,11bR,13aR,13bR)-5a,5b,8,8,11a-pentamethyl-1-(prop-1-en-2-yl)-3a-((3-(1-dioxo-thiomorpholino)propylamino)methyl)-2,3,3a,4,5,5a,5b,6,7,7a,8,11,11a,11b,12,13,13a,13b-octadecahydro-1H-cyclopenta[a]chrysen-9-yl)benzoic acid], with under 100 nM; and `C=C(C)[C@@H]1CC[C@]2(CN(CCCN3CCS(=O)(=O)CC3)C(=O)CCC(=O)O)CC[C@]3(C)[C@H](CC[C@@H]4[C@@]5(C)CC=C(c6ccc(C(=O)O)cc6)C(C)(C)[C@@H]5CC[C@]43C)[C@@H]12` [Example 16, 4-((1R,3aS,5aR,5bR,7aR,11aS,11bR,13aR,13bR)-5a,5b,8,8,11a-pentamethyl-1-(prop-1-en-2-yl)-3a-((3-(1-dioxo-thiomorpholino)propylamino)methyl)-2,3,3a,4,5,5a,5b,6,7,7a,8,11,11a,11b,12,13,13a,13b-octadecahydro-1H-cyclopenta[a]chrysen-9-yl)benzoic acid], with under 100 nM; and `C=C(C)[C@@H]1CC[C@]2(CN(CCCN3CCS(=O)(=O)CC3)C(C)=O)CC[C@]3(C)[C@H](CC[C@@H]4[C@@]5(C)CC=C(c6ccc(C(=O)O)cc6)C(C)(C)[C@@H]5CC[C@]43C)[C@@H]12` [Example 17, 4-((1R,3aS,5aR,5bR,7aR,11aS,11bR,13aR,13bR)-5a,5b,8,8,11a-pentamethyl-1-(prop-1-en-2-yl)-3a-((3-(1-dioxo-thiomorpholino)propylamino)methyl)-2,3,3a,4,5,5a,5b,6,7,7a,8,11,11a,11b,12,13,13a,13b-octadecahydro-1H-cyclopenta[a]chrysen-9-yl)benzoic acid], with under 100 nM.
Turning to `C=C(C)[C@@H]1CC[C@]2(CNCCCN(C)c3ccccc3)CC[C@]3(C)[C@H](CC[C@@H]4[C@@]5(C)CC=C(c6ccc(C(=O)O)cc6)C(C)(C)[C@@H]5CC[C@]43C)[C@@H]12` [Example 18, 4-((1R,3aS,5aR,5bR,7aR,11aS,11bR,13aR,13bR)-5a,5b,8,8,11a-pentamethyl-3a-((3-(methyl(phenyl)amino)propylamino)methyl)-1-(prop-1-en-2-yl)-2,3,3a,4,5,5a,5b,6,7,7a,8,11,11a,11b,12,13,13a,13b-octadecahydro-1H-cyclopenta[a]chrysen-9-yl)benzoic acid], the EC50 is under 100 nM.
Turning to `C=C(C)[C@@H]1CC[C@]2(CNCCCNC)CC[C@]3(C)[C@H](CC[C@@H]4[C@@]5(C)CC=C(c6ccc(C(=O)O)cc6)C(C)(C)[C@@H]5CC[C@]43C)[C@@H]12` [Example 19, 4-((1R,3aS,5aR,5bR,7aR,11aS,11bR,13aR,13bR)-5a,5b,8,8,11a-pentamethyl-3a-((3-(methylamino)propylamino)methyl)-1-(prop-1-en-2-yl)-2,3,3a,4,5,5a,5b,6,7,7a,8,11,11a,11b,12,13,13a,13b-octadecahydro-1H-cyclopenta[a]chrysen-9-yl)benzoic acid], the concentration for a half-maximal effect (EC50) is under 100 nM.
Then `C=C(C)[C@@H]1CC[C@]2(CNCCn3ccnc3)CC[C@]3(C)[C@H](CC[C@@H]4[C@@]5(C)CC=C(c6ccc(C(=O)O)cc6)C(C)(C)[C@@H]5CC[C@]43C)[C@@H]12` [Example 20, 4-((1R,3aS,5aR,5bR,7aR,11aS,11bR,13aR,13bR)-3a-((2-(1H-imidazol-1-yl)ethylamino)methyl)-5a,5b,8,8,11a-pentamethyl-1-(prop-1-en-2-yl)-2,3,3a,4,5,5a,5b,6,7,7a,8,11,11a,11b,12,13,13a,13b-octadecahydro-1H-cyclopenta[a]chrysen-9-yl)benzoic acid], with under 100 nM; and `C=C(C)[C@@H]1CC[C@]2(CNCCN(CC)CC)CC[C@]3(C)[C@H](CC[C@@H]4[C@@]5(C)CC=C(c6ccc(C(=O)O)cc6)C(C)(C)[C@@H]5CC[C@]43C)[C@@H]12` [Example 21, 4-((1R,3aS,5aR,5bR,7aR,11aS,11bR,13aR,13bR)-3a-((2-(diethylamino)ethylamino)methyl)-5a,5b,8,8,11a-pentamethyl-1-(prop-1-en-2-yl)-2,3,3a,4,5,5a,5b,6,7,7a,8,11,11a,11b,12,13,13a,13b-octadecahydro-1H-cyclopenta[a]chrysen-9-yl)benzoic acid], with under 100 nM; and `C=C(C)[C@@H]1CC[C@]2(CNCCCn3ccnc3C)CC[C@]3(C)[C@H](CC[C@@H]4[C@@]5(C)CC=C(c6ccc(C(=O)O)cc6)C(C)(C)[C@@H]5CC[C@]43C)[C@@H]12` [Example 22], with under 100 nM.
As for `C=C(C)[C@@H]1CC[C@]2(CNCCCN3CCNC(=O)C3)CC[C@]3(C)[C@H](CC[C@@H]4[C@@]5(C)CC=C(c6ccc(C(=O)O)cc6)C(C)(C)[C@@H]5CC[C@]43C)[C@@H]12` [Example 23, 4-((1R,3aS,5aR,5bR,7aR,11aS,11bR,13aR,13bR)-5a,5b,8,8,11a-pentamethyl-3a-((3-(3-oxopiperazin-1-yl)propylamino)methyl)-1-(prop-1-en-2-yl)-2,3,3a,4,5,5a,5b,6,7,7a,8,11,11a,11b,12,13,13a,13b-octadecahydro-1H-cyclopenta[a]chrysen-9-yl)benzoic acid], the EC50 was under 100 nM.
Take `C=C(C)[C@@H]1CC[C@]2(CNCCN(CCO)CCO)CC[C@]3(C)[C@H](CC[C@@H]4[C@@]5(C)CC=C(c6ccc(C(=O)O)cc6)C(C)(C)[C@@H]5CC[C@]43C)[C@@H]12` [Example 24, 4-((1R,3aS,5aR,5bR,7aR,11aS,11bR,13aR,13bR)-3a-((2-(bis(2-hydroxyethyl)amino)ethylamino)methyl)-5a,5b,8,8,11a-pentamethyl-1-(prop-1-en-2-yl)-2,3,3a,4,5,5a,5b,6,7,7a,8,11,11a,11b,12,13,13a,13b-octadecahydro-1H-cyclopenta[a]chrysen-9-yl)benzoic acid]: the 50% effective concentration (EC50) was under 100 nM.
Consider `C=C(C)[C@@H]1CC[C@]2(CNCCc3c[nH]cn3)CC[C@]3(C)[C@H](CC[C@@H]4[C@@]5(C)CC=C(c6ccc(C(=O)O)cc6)C(C)(C)[C@@H]5CC[C@]43C)[C@@H]12` [Example 25, 4-((1R,3aS,5aR,5bR,7aR,11aS,11bR,13aR,13bR)-3a-((2-(1H-imidazol-4-yl)ethylamino)methyl)-5a,5b,8,8,11a-pentamethyl-1-(prop-1-en-2-yl)-2,3,3a,4,5,5a,5b,6,7,7a,8,11,11a,11b,12,13,13a,13b-octadecahydro-1H-cyclopenta[a]chrysen-9-yl)benzoic acid], for which the concentration giving a half-maximal response (EC50) is under 100 nM.
Turning to `C=C(C)[C@@H]1CC[C@]2(CNCCN(C)CCO)CC[C@]3(C)[C@H](CC[C@@H]4[C@@]5(C)CC=C(c6ccc(C(=O)O)cc6)C(C)(C)[C@@H]5CC[C@]43C)[C@@H]12` [Example 26, 4-((1R,3aS,5aR,5bR,7aR,11aS,11bR,13aR,13bR)-3a-((2-((2-hydroxyethyl)(methyl)amino)ethylamino)methyl)-5a,5b,8,8,11a-pentamethyl-1-(prop-1-en-2-yl)-2,3,3a,4,5,5a,5b,6,7,7a,8,11,11a,11b,12,13,13a,13b-octadecahydro-1H-cyclopenta[a]chrysen-9-yl)benzoic acid], the EC50 was under 100 nM.

As a reminder, the EC50 is the concentration that produces a half-maximal response.
